# From article PMC3815952 (Microbial biotechnology, 2009)
# Assays:
# RPA1163 = RPA1163 (Rhodopseudomonas palustris, UniProt Q6NAM1); experiment: calorimetry, non-linear regression; assay type: biochemical; details: Tris-SO4 pH 8.5, 30°C
# RHA1_ro00230 = RHA1_ro00230 (Rhodococcus jostii, UniProt Q0SK70); experiment: calorimetry, non-linear regression; assay type: biochemical; details: Tris-SO4 pH 8.5, 30°C
# Bcen2424–2051 = details: read-out: Substrates / Chloroacetate / KM; Tris-SO4 pH 8.5, 30°C
# Adeh3811 = experiment: calorimetry, non-linear regression; assay type: biochemical, Anaeromyxobacter dehalogenans; details: Tris-SO4 pH 8.5, 30°C
# Bpro4516 = details: Tris-SO4 pH 8.5, 30°C
# RPA1163, sequence (Q6NAM1 whole entry): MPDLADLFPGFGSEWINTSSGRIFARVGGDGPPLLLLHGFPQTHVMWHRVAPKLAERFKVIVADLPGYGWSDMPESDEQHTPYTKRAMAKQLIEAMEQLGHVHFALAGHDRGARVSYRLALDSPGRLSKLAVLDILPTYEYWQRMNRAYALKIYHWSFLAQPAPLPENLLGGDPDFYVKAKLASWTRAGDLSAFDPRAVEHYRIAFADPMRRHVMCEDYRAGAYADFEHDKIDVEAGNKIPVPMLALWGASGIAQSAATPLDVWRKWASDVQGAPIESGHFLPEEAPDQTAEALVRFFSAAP
# RHA1_ro00230, sequence (Q0SK70 1-254): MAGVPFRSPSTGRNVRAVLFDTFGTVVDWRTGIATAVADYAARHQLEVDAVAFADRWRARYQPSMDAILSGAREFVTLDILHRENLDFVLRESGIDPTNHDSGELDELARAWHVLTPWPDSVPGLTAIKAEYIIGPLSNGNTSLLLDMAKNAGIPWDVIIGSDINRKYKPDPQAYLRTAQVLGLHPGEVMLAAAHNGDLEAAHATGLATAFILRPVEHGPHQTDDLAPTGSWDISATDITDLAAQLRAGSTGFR
Structure (SMILES),Substrates / Chloroacetate / KM (μM) (RPA1163),Substrates / Chloroacetate / KM (μM) (RHA1_ro00230),Km (Bcen2424–2051) [µM],Substrates / Fluoroacetate / KM (μM) (Adeh3811),Substrates / Fluoroacetate / KM (μM) (Bpro4516),Substrates / Fluoroacetate / KM (μM) (RPA1163),Substrates / Fluoroacetate / KM (μM) (RHA1_ro00230)
O=C(O)CCl [chloroacetate],1 400 ± 400 µM,19 000 ± 2000 µM,17 ± 2,,,,
O=C(O)CF [fluoroacetate],,,,13 500 ± 300 µM,19 000 ± 2000 µM,3 300 ± 200 µM,20 000 ± 2000 µM
